What was measured:
p110 delta = p110 delta (Homo sapiens (Human), UniProt O00329); assay: PI3K isoform inhibition assay, p110 delta (fluorescence polarization displacement); assay type: biochemical
Protocol: (§1) PI3K enzymatic activity was assayed by measuring the amount of product phosphatidylinositol 3,4,5-phosphate (PIP3) formed from substrate 4,5 phosphatidylinositol 4,5-phosphate (PIP2) using a fluorescence polarization displacement assay. The decrease in fluorescence polarization of a fluorescent PIP3 probe is measured as it is displaced from a PIP3-binding protein GRP-1 detector by PI3K-catalyzed product. […] The kinase reactions were initiated by the addition of 40 ng/mL p110α/p85α, 300 ng/mL p110β/p85α, 40 ng/mL p110γ, or 40 ng/mL p110δ/p85α (Upstate Group, Millipore; Dundee, UK), and 10 μM PIP2 (Echelon Biosciences) to the wells. […] After 60 minutes of incubation at room temperature to allow equilibration of labeled and unlabeled PIP3 binding, the parallel and perpendicular components of the fluorescence emissions from each sample were measured at an excitation wavelength of 530 nm and an emission wavelength of 590 nm using an Envision fluorescent plate reader with a rhodamine filter (PerkinElmer Life and Analytical Sciences; Wellesley, Mass.). The assay is capable of detecting 0.1-2.0 μM PIP3 product. The IC50 values were obtained by fitting the dose-dependent inhibition data to a 4-parameter equation using Assay Explorer software (MDL, San Ramon, Calif.).
The Formula I compound was serially diluted in 100% DMSO. The kinase reaction was incubated for 1 h at room temperature, and the reaction was terminated by the addition of PBS. IC50 values were subsequently determined using sigmoidal dose-response curve fit (variable slope).
(§2) The four Class I PI 3-kinases are cloned into baculovirus vectors as follows: […]

p110 alpha = p110 alpha (Homo sapiens (Human), UniProt P42336); assay: PI3K isoform inhibition assay, p110 alpha (for alpha/delta selectivity); conditions: ratio of biochemical IC50 values
p110 alpha, sequence (P42336 whole entry, canonical isoform): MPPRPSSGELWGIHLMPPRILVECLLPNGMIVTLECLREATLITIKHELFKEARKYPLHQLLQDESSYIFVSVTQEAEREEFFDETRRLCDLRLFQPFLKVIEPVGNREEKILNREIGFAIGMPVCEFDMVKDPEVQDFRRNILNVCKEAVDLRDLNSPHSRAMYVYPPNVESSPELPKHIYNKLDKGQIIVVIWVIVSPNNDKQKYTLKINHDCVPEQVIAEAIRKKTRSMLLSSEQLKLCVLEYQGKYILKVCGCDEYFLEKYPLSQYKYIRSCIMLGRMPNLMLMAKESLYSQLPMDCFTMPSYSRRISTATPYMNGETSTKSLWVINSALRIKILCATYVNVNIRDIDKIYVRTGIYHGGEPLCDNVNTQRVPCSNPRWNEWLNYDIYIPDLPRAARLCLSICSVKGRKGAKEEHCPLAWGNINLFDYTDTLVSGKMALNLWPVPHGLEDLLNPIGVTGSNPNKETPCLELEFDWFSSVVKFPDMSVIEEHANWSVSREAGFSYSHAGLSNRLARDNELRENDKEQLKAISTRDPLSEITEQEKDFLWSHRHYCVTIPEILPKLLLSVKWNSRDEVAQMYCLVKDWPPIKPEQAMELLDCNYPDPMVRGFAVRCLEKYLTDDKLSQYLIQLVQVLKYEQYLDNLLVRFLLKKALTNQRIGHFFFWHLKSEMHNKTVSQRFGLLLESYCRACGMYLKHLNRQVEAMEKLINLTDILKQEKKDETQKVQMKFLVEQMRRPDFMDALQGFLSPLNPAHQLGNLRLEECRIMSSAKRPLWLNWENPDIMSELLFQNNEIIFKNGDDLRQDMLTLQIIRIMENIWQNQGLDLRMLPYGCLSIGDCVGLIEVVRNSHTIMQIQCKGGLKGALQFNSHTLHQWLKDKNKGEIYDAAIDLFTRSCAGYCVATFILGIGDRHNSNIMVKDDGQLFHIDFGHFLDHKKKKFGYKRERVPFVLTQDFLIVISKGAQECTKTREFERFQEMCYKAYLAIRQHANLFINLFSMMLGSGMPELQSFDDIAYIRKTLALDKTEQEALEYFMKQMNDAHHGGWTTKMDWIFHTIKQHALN
p110 alpha, sequence (P27986 whole entry partner, canonical isoform): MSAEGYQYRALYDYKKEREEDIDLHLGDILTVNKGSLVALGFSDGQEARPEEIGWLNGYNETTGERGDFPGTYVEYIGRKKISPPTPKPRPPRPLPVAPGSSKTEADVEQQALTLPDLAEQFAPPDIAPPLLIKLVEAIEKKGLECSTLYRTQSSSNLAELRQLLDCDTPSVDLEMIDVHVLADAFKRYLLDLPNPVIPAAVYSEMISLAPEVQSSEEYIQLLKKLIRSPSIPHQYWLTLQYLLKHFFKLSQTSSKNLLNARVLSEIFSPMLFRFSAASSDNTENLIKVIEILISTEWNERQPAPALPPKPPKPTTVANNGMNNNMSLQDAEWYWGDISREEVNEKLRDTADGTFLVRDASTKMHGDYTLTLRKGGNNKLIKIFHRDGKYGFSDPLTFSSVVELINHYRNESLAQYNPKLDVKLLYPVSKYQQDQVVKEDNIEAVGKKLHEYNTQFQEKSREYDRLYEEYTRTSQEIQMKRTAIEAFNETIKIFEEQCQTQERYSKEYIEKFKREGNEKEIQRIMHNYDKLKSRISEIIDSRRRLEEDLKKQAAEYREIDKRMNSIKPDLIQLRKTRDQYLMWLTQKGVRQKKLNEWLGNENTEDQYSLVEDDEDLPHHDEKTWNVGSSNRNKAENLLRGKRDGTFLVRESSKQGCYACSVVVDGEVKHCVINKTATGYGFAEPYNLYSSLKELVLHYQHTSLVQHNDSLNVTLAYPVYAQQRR
Protocol: as §1
The same protocol may be used to establish IC50 values for p110α (alpha) PI3K binding.
as §2

p110 delta, sequence (O00329 whole entry, canonical isoform): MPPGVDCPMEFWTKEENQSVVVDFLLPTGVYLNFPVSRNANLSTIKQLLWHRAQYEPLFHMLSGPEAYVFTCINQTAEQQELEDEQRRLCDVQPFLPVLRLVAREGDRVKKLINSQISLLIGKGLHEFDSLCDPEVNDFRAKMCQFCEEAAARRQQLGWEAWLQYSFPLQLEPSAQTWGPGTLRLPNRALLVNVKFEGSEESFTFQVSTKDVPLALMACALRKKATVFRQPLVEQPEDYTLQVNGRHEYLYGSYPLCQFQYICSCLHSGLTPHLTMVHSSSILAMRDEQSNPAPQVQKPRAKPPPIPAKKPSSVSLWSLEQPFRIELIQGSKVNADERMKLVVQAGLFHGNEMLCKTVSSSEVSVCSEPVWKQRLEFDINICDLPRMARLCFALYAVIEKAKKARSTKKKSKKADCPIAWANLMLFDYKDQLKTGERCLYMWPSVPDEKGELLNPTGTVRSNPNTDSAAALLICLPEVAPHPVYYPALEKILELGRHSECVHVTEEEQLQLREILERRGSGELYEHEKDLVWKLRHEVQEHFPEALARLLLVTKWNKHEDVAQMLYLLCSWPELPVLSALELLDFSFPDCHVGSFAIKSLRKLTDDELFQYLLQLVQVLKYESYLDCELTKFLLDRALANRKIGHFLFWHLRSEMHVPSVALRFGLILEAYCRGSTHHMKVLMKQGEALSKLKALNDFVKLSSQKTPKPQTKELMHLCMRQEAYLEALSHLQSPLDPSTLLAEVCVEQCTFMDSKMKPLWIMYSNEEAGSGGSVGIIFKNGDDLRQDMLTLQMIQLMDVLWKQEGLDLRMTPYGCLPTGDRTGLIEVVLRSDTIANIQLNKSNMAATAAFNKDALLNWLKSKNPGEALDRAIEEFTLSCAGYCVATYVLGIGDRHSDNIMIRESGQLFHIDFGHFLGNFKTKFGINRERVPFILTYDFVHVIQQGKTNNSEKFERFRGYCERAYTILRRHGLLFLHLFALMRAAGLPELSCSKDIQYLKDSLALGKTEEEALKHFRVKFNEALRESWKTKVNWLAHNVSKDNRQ
p110 delta, sequence (P27986 whole entry partner, canonical isoform): as the sequence (P27986 whole entry partner, canonical isoform) above

| Structure (SMILES) | IC50 (p110 delta) [nM] | IC50 p110 alpha/IC50 p110 delta (p110 alpha) |
| --- | --- | --- |
| Cc1nc(-c2cn3c(n2)-c2ccc(-c4ccnn4C4CC(C)N(C)C(C)C4)cc2OCC3)n(C(C)C)n1 (centres unmarked) [Example 282, 2-(2-isopropyl-5-methyl-1,2,4-triazol-3-yl)-9-[2-(1,2,6-trimethyl-4-piperidyl)pyrazol-3-yl]-5,6-dihydroimidazo[1,2-d][1,4]benzoxazepine] | 1.3 | 76.9 |
| Cc1nc(-c2cn3c(n2)-c2ccc(N4CCCC4C4CCN(S(C)(=O)=O)CC4)cc2OCC3)n(C(C)C)n1 (centres unmarked) [Example 306, 2-(2-isopropyl-5-methyl-1,2,4-triazol-3-yl)-9-[2-(1-methylsulfonyl-4-piperidyl)pyrrolidin-1-yl]-5,6-dihydroimidazo[1,2-d][1,4]benzoxazepine] | 1.18 | 12.4 |
| Cc1nc(-c2cn3c(n2)-c2cc(-c4cnn(C)c4C4CCCN(C(C)C)C4)c(F)cc2OCC3)n(C(C)C)n1 (centres unmarked) [Example 358, 9-fluoro-2-(2-isopropyl-5-methyl-1,2,4-triazol-3-yl)-10-[5-(1-isopropyl-3-piperidyl)-1-methyl-pyrazol-4-yl]-5,6-dihydroimidazo[1,2-d][1,4]benzoxazepine] | 1.56 | 67.1 |
| Cc1nc(-c2cn3c(n2)-c2cc([C@H](C)N4CCN(C(C)(C)CO)CC4)ncc2OCC3)n(C(C)C)n1 [Example 364, (S)-2-(4-(1-(2-(1-isopropyl-3-methyl-1H-1,2,4-triazol-5-yl)-5,6-dihydroimidazo[1,2-d]pyrido[4,3-f][1,4]oxazepin-10-yl)ethyl)piperazin-1-yl)-2-methylpropan-1-ol] | 2.1 | 85.9 |
| Cc1nc(-c2cn3c(n2)-c2ccc(-c4ncnn4C4CCN(C(C)(C)C)CC4)cc2OCC3)n(C(C)C)n1 [Example 258, 9-(1-(1-tert-butylpiperidin-4-yl)-1H-1,2,4-triazol-5-yl)-2-(1-isopropyl-3-methyl-1H-1,2,4-triazol-5-yl)-5,6-dihydrobenzo[f]imidazo[1,2-d][1,4]oxazepine] | 82.1 | 10.2 |
| Cc1nc(-c2cn3c(n2)-c2ccc(-c4ccnn4C4CCN(C(C)(C)C)CC4)cc2OCC3)n(C(C)C)n1 [Example 269, 9-[2-(1-tert-butyl-4-piperidyl)pyrazol-3-yl]-2-(2-isopropyl-5-methyl-1,2,4-triazol-3-yl)-5,6-dihydroimidazo[1,2-d][1,4]benzoxazepine] | 4.57 | 9.8 |
| Cc1nc(-c2cn3c(n2)-c2cc(C(C)N4CCN(C)CC4)c(F)cc2OCC3)n(C(C)C)n1 (centres unmarked) [Example 373, 9-fluoro-2-(2-isopropyl-5-methyl-1,2,4-triazol-3-yl)-10-[1-(4-methylpiperazin-1-yl)ethyl]-5,6-dihydroimidazo[1,2-d][1,4]benzoxazepine] | 3.13 | 15.7 |
| Cc1nc(-c2cn3c(n2)-c2ccc(N4CCCC4C4CCCN(C)C4)cc2OCC3)n(C(C)C)n1 (centres unmarked) [Example 321, 2-(2-isopropyl-5-methyl-1,2,4-triazol-3-yl)-9-[2-(1-methyl-3-piperidyl)pyrrolidin-1-yl]-5,6-dihydroimidazo[1,2-d][1,4]benzoxazepine] | 2.52 | 22.1 |
| Cc1nc(-c2cn3c(n2)-c2cc([C@@H](C)N4CCN(CC(C)(C)O)CC4)c(F)cc2OCC3)n(C(C)C)n1 [Example 334, (R)-1-(4-(1-(9-fluoro-2-(1-isopropyl-3-methyl-1H-1,2,4-triazol-5-yl)-5,6-dihydrobenzo[f]imidazo[1,2-d][1,4]oxazepin-10-yl)ethyl)piperizan-1-yl)-2-methylpropan-2-ol] | 10.5 | 17.3 |
| COc1cc2c(cc1[C@@H](C)N1CCN(C(C)(C)C)CC1)-c1nc(-c3nc(C)nn3C(C)C)cn1CCO2 [Example 368, 10-[(1R)-1-(4-tert-butylpiperazin-1-yl)ethyl]-2-(2-isopropyl-5-methyl-1,2,4-triazol-3-yl)-9-methoxy-5,6-dihydroimidazo[1,2-d][1,4]benzoxazepine] | 1.06 | 92.4 |
| Cc1nc(-c2cn3c(n2)-c2ccc(-c4cnn(C)c4C4CN(C(C)C)CCO4)cc2OCC3)n(C(C)C)n1 (centres unmarked) [Example 372, 2-(2-isopropyl-5-methyl-1,2,4-triazol-3-yl)-9-[5-(4-isopropylmorpholin-2-yl)-1-methyl-pyrazol-4-yl]-5,6-dihydroimidazo[1,2-d][1,4]benzoxazepine] | 0.992 | 18 |
| Cc1nc(-c2cn3c(n2)-c2ccc(N4CCCC4C4CCN(CC(C)(C)O)CC4)cc2OCC3)n(C(C)C)n1 (centres unmarked) [Example 272, 1-[4-[1-[2-(2-isopropyl-5-methyl-1,2,4-triazol-3-yl)-5,6-dihydroimidazo[1,2-d][1,4]benzoxazepin-9-yl]pyrrolidin-2-yl]-1-piperidyl]-2-methyl-propan-2-ol] | 0.986 | 49.9 |

Now from value to molecule:

| IC50 (p110 delta) [nM] | IC50 p110 alpha/IC50 p110 delta (p110 alpha) | Structure (SMILES) |
| --- | --- | --- |
| 0.771 | 71.1 | CCN(CC)C1CCOC(c2c(-c3ccc4c(c3)OCCn3cc(-c5nc(C)nn5C(C)C)nc3-4)cnn2C)C1 (centres unmarked) [Example 341, N,N-diethyl-2-[4-[2-(2-isopropyl-5-methyl-1,2,4-triazol-3-yl)-5,6-dihydroimidazo[1,2-d][1,4]benzoxazepin-9-yl]-2-methyl-pyrazol-3-yl]tetrahydropyran-4-amine] |
| 0.571 | 16.1 | Cc1nc(-c2cn3c(n2)-c2cnc(-c4cnn(C)c4C4CCCN(C(C)C)C4)cc2OCC3)n(C(C)C)n1 (centres unmarked) [Example 370, 2-(1-isopropyl-3-methyl-1H-1,2,4-triazol-5-yl)-9-(5-(1-isopropylpiperidin-3-yl)-1-methyl-1H-pyrazol-4-yl)-5,6-dihydroimidazo[1,2-d]pyrido[3,4-f][1,4]oxazepine] |
| 0.335 | 50.1 | Cc1nc(-c2cn3c(n2)-c2ccc(N4CCCC45CCCN(C)C5)cc2OCC3)n(C(C)C)n1 (centres unmarked) [Example 314, 2-(2-isopropyl-5-methyl-1,2,4-triazol-3-yl)-9-(7-methyl-1,7-diazaspiro[4.5]decan-1-yl)-5,6-dihydroimidazo[1,2-d][1,4]benzoxazepine] |
| 0.972 | 23.6 | Cc1nc(-c2cn3c(n2)-c2ccc(-c4cn[nH]c4C4CCCN(C(C)C)C4)cc2OCC3)n(C(C)C)n1 (centres unmarked) [Example 361, 2-(2-isopropyl-5-methyl-1,2,4-triazol-3-yl)-9-[5-(1-isopropyl-3-piperidyl)-1H-pyrazol-4-yl]-5,6-dihydroimidazo[1,2-d][1,4]benzoxazepine] |
| 0.939 | 53 | Cc1nc(-c2cn3c(n2)-c2ccc(-c4cnn(C)c4C4CC(N(C)C(C)C)CCO4)cc2OCC3)n(C(C)C)n1 (centres unmarked) [Example 343, N-isopropyl-2-[4-[2-(2-isopropyl-5-methyl-1,2,4-triazol-3-yl)-5,6-dihydroimidazo[1,2-d][1,4]benzoxazepin-9-yl]-2-methyl-pyrazol-3-yl]-N-methyl-tetrahydropyran-4-amine] |
| 0.852 | 13.1 | Cc1nc(-c2cn3c(n2)-c2ccc(-c4cnn(C)c4C4CCCCN4CC(C)(C)O)cc2OCC3)n(C(C)C)n1 (centres unmarked) [Example 289, 1-[2-[4-[2-(2-isopropyl-5-methyl-1,2,4-triazol-3-yl)-5,6-dihydroimidazo[1,2-d][1,4]benzoxazepin-9-yl]-2-methyl-pyrazol-3-yl]-1-piperidyl]-2-methyl-propan-2-ol] |
| 0.288 | 23 | Cc1nc(-c2cn3c(n2)-c2ccc(N4CCCC4CN(C)C)cc2OCC3)n(C(C)C)n1 (centres unmarked) [Example 346, 1-[1-[2-(2-isopropyl-5-methyl-1,2,4-triazol-3-yl)-5,6-dihydroimidazo[1,2-d][1,4]benzoxazepin-9-yl]pyrrolidin-2-yl]-N,N-dimethyl-methanamine] |
| < 0.035 | 172 | Cc1nc(-c2cn3c(n2)-c2ccc(-c4cnn(C)c4C4CN(C(C)C)CCN4C)cc2OCC3)n(C(C)C)n1 (centres unmarked) [Example 366, 9-[5-(4-isopropyl-1-methyl-piperazin-2-yl)-1-methyl-pyrazol-4-yl]-2-(2-isopropyl-5-methyl-1,2,4-triazol-3-yl)-5,6-dihydroimidazo[1,2-d][1,4]benzoxazepine] |
| 0.52 | 36.4 | CCN1CCC(C2CCCN2c2ccc3c(c2)OCCn2cc(-c4nc(C)nn4C(C)C)nc2-3)CC1 (centres unmarked) [Example 304, 9-[2-(1-ethyl-4-piperidyl)pyrrolidin-1-yl]-2-(2-isopropyl-5-methyl-1,2,4-triazol-3-yl)-5,6-dihydroimidazo[1,2-d][1,4]benzoxazepine] |
| 0.16 | 21.3 | Cc1nc(-c2cn3c(n2)-c2ccc(N4CCC4[C@@H]4CCCN(C(C)C)C4)cc2OCC3)n(C(C)C)n1 (stereo partly drawn) [Example 342, 2-(1-isopropyl-3-methyl-1H-1,2,4-triazol-5-yl)-9-(2-((R)-1-isopropylpiperidin-3-yl)azetidin-1-yl)-5,6-dihydrobenzo[f]imidazo[1,2-d][1,4]oxazepine] |
